The assay concerns P388 leukemia ip, CD2F1 mice, survival T/C. Put plainly: NCI In Vivo Anticancer Drug Screen. Data for tumor model P388 Leukemia (intraperitoneal) in CD2F1 (CDF1) mice. As to conditions: endpoint: median survival time, higher = longer survival. In a few lines: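 Mice carrying the transplanted tumor received test compound or vehicle. Survival was recorded in each group, and the value is the treated-group measurement divided by that of the vehicle-treated control group.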

Where [1] appears, read: dose: 50.0 mg/kg/injection, schedule: Q01DX009 (ip), vehicle: saline.
[2] abbreviates: dose: 100.0 mg/kg/injection, schedule: Q01DX009 (ip), vehicle: saline.
Where [3] appears, read: dose: 200.0 mg/kg/injection, schedule: Q01DX009 (ip), vehicle: saline.
[4] abbreviates: dose: 50.0 mg/kg/injection, schedule: Q01DX005 (ip), vehicle: saline with Tween-80.
[5] abbreviates: dose: 100.0 mg/kg/injection, schedule: Q01DX005 (ip), vehicle: saline with Tween-80.
Setting [6] is: dose: 100.0 mg/kg/injection, schedule: Q04DX003 (ip), vehicle: saline.
The mark [7] stands for this setting: dose: 25.0 mg/kg/injection, schedule: Q01DX009 (ip), vehicle: saline with Tween-80.
[8] abbreviates: dose: 50.0 mg/kg/injection, schedule: Q01DX005 (ip), vehicle: Klucel (hydroxypropylcellulose) (HPC).
The mark [9] stands for this setting: dose: 100.0 mg/kg/injection, schedule: Q01DX005 (ip), vehicle: Klucel (hydroxypropylcellulose) (HPC).
[10] abbreviates: dose: 200.0 mg/kg/injection, schedule: Q01DX005 (ip), vehicle: Klucel (hydroxypropylcellulose) (HPC).
The mark [11] stands for this setting: dose: 60.0 mg/kg/injection, schedule: Q01DX005 (ip), vehicle: saline with Tween-80.

Several values for one entry are separate records, joined by “and”; a condition that tells them apart may be missing. Identical values can stand only once. Toxic doses and inconclusive results are not listed. Peptide text beside a SMILES is read from it.

As to `COc1cccc2c1C(=O)c1c(O)c3c(c(O)c1C2=O)C[C@@](O)(/C(C)=N/NC(=O)c1ccc(O)cc1)C[C@@H]3OC1CC(N)C(O)C(C)O1` (some centres undefined), the T/C (dose: 0.12 mg/kg/injection, schedule: Q01DX009 (ip), vehicle: water) is 115 % of control; the T/C (dose: 0.25 mg/kg/injection, schedule: Q01DX009 (ip), vehicle: water) was 111 % of control; the T/C (dose: 0.5 mg/kg/injection, schedule: Q01DX009 (ip), vehicle: water) was 152 % of control and 157 % of control; the T/C (dose: 1.0 mg/kg/injection, schedule: Q01DX009 (ip), vehicle: water) is 160 % of control; the T/C (dose: 2.0 mg/kg/injection, schedule: Q01DX009 (ip), vehicle: water) is 160 % of control and 180 % of control; the T/C (dose: 4.0 mg/kg/injection, schedule: Q01DX009 (ip), vehicle: water) is 161 % of control and 171 % of control. Further, the T/C is 174 % of control (dose: 10.0 mg/kg/injection, schedule: Q01DX001 (ip), vehicle: water); 111 % of control (dose: 16.0 mg/kg/injection, schedule: Q01DX009 (ip), vehicle: water); 117 % of control (dose: 20.0 mg/kg/injection, schedule: Q01DX001 (ip), vehicle: water).

As for `C=[CH][Sn](=[O])[CH]=C`, the T/C was 104 % of control under setting [1]; 105 % of control and 89 % of control under setting [2]; 104 % of control and 88 % of control under setting [3].

On to `C[Si](C)(C)N=S=N[Si](C)(C)C`, for which the T/C was 101 % of control under setting [4] and 108 % of control under setting [5].

On to `O=P1(c2ccccc2)CCCCN1Cc1ccccc1` (centres undefined), for which the T/C reads like this: under setting [6], 108 % of control; (dose: 200.0 mg/kg/injection, schedule: Q04DX003 (ip), vehicle: saline) 94 % of control; (dose: 400.0 mg/kg/injection, schedule: Q04DX003 (ip), vehicle: saline) 116 % of control.

In the case of `CCCCN(Cc1ccccc1)CC(O)CN=Cc1ccc(C=NCC(O)CN(CCCC)Cc2ccccc2)cc1` (centres undefined), the T/C was 102 % of control (dose: 50.0 mg/kg/injection, schedule: Q01DX005 (ip), vehicle: saline + Tween-80 + alcohol); 107 % of control (dose: 100.0 mg/kg/injection, schedule: Q01DX005 (ip), vehicle: saline + Tween-80 + alcohol); 98 % of control (dose: 200.0 mg/kg/injection, schedule: Q01DX005 (ip), vehicle: saline + Tween-80 + alcohol).

Regarding `NCC(=O)OCN1C(=O)C2C3C=CC(C2C1=O)C1C2C(=O)N(COC(=O)CN)C(=O)C2C31` (centres undefined), the T/C reads like this: (dose: 6.25 mg/kg/injection, schedule: Q01DX009 (ip), vehicle: water) 109 % of control; (dose: 12.5 mg/kg/injection, schedule: Q01DX009 (ip), vehicle: water) 104 % of control; (dose: 25.0 mg/kg/injection, schedule: Q01DX009 (ip), vehicle: water) 104 % of control and 109 % of control; (dose: 25.75 mg/kg/injection, schedule: Q01DX009 (ip), vehicle: water) 112 % of control; (dose: 50.0 mg/kg/injection, schedule: Q01DX009 (ip), vehicle: water) 99 % of control and 115 % of control and 116 % of control; (dose: 51.5 mg/kg/injection, schedule: Q01DX009 (ip), vehicle: water) 121 % of control. The T/C is, setting by setting: (dose: 100.0 mg/kg/injection, schedule: Q01DX009 (ip), vehicle: water) 118 % of control; (dose: 103.0 mg/kg/injection, schedule: Q01DX009 (ip), vehicle: water) 203 % of control; (dose: 200.0 mg/kg/injection, schedule: Q01DX009 (ip), vehicle: water) 91 % of control; (dose: 400.0 mg/kg/injection, schedule: Q01DX009 (ip), vehicle: water) 173 % of control.

`CC(=O)NC(C=O)C(O)C(O)C(O)C(=O)O` (centres undefined) (tested in a mixture with another compound): the T/C runs as follows: (dose: 6.25 mg/kg/injection, schedule: Q01DX009 (ip), vehicle: Klucel (hydroxypropylcellulose) (HPC)) 101 % of control; (dose: 12.5 mg/kg/injection, schedule: Q01DX009 (ip), vehicle: Klucel (hydroxypropylcellulose) (HPC)) 94 % of control; (dose: 25.0 mg/kg/injection, schedule: Q01DX009 (ip), vehicle: Klucel (hydroxypropylcellulose) (HPC)) 92 % of control.

For the compound `Nc1ccc2nc(N)sc2c1`, the T/C is, setting by setting: under setting [1], 100 % of control; under setting [2], 93 % of control; under setting [3], 101 % of control.

For the compound `Cc1cc(-c2ccc(N=Nc3c(C)nn(-c4ccc(S(=O)(=O)O)cc4)c3O)c(C)c2)ccc1N=Nc1ccc(O)c(C(=O)O)c1`, the T/C (dose: 6.25 mg/kg/injection, schedule: Q01DX009 (ip), vehicle: saline with Tween-80) is 100 % of control; the T/C (dose: 12.5 mg/kg/injection, schedule: Q01DX009 (ip), vehicle: saline with Tween-80) was 101 % of control; the T/C under setting [7] is 93 % of control.

Take `CC1=CC(Cc2ccccc2)N(C)C(C(N)=O)C1` (centres undefined): the T/C is 102 % of control under setting [8] and 101 % of control under setting [9].

In the case of `CCC[CH2][Sn]([Cl])([Cl])[CH2]CCC`, the T/C runs as follows: (dose: 0.19 mg/kg/injection, schedule: Q01DX009 (ip), vehicle: saline with Tween-80) 100 % of control; (dose: 0.38 mg/kg/injection, schedule: Q01DX009 (ip), vehicle: saline with Tween-80) 113 % of control; (dose: 0.75 mg/kg/injection, schedule: Q01DX009 (ip), vehicle: saline with Tween-80) 114 % of control and 120 % of control; (dose: 1.5 mg/kg/injection, schedule: Q01DX009 (ip), vehicle: saline with Tween-80) 112 % of control and 114 % of control; (dose: 3.0 mg/kg/injection, schedule: Q01DX009 (ip), vehicle: saline with Tween-80) 168 % of control; (dose: 6.0 mg/kg/injection, schedule: Q01DX009 (ip), vehicle: saline with Tween-80) 91 % of control. Besides, the T/C under setting [6] is 109 % of control.

Consider `C[Si](C)(C)CC[Si]12OCCN(CCO1)C1CCCCC1O2` (centres undefined), for which the T/C by setting is: under setting [8], 93 % of control; under setting [9], 101 % of control; under setting [10], 97 % of control.

With `O=C1c2ccccc2C2(O)C3c4ccccc4CCN3CN12` (centres undefined), the T/C is 100 % of control under setting [8], 101 % of control under setting [9] and 101 % of control under setting [10].

For the compound `NC(C(=O)O)c1ccc(CO)cc1` (centres undefined), the T/C under setting [7] was 100 % of control; the T/C (dose: 50.0 mg/kg/injection, schedule: Q01DX005 (ip), vehicle: water) is 86 % of control; the T/C (dose: 50.0 mg/kg/injection, schedule: Q01DX009 (ip), vehicle: saline with Tween-80) was 86 % of control; the T/C (dose: 100.0 mg/kg/injection, schedule: Q01DX005 (ip), vehicle: water) is 107 % of control; the T/C (dose: 100.0 mg/kg/injection, schedule: Q01DX009 (ip), vehicle: saline with Tween-80) is 106 % of control; the T/C (dose: 200.0 mg/kg/injection, schedule: Q01DX005 (ip), vehicle: water) is 97 % of control.

Take `Nc1nc(Nc2ccccc2)nc(-c2ccccc2)n1`: the T/C reads like this: under setting [4], 100 % of control; under setting [5], 86 % of control.

Consider `CCOC(=O)COc1cc2c(cc1C(C)c1ccc(OC)c(OC)c1)OCO2` (centres undefined), for which the T/C was 90 % of control (dose: 50.0 mg/kg/injection, schedule: Q01DX005 (ip), vehicle: distilled water + Tween-80); 91 % of control (dose: 100.0 mg/kg/injection, schedule: Q01DX005 (ip), vehicle: distilled water + Tween-80); 86 % of control (dose: 200.0 mg/kg/injection, schedule: Q01DX005 (ip), vehicle: distilled water + Tween-80).

`CSc1c(N(C)C)c(=O)c1=S`: the T/C runs as follows: (dose: 15.0 mg/kg/injection, schedule: Q01DX005 (ip), vehicle: saline with Tween-80) 99 % of control; (dose: 30.0 mg/kg/injection, schedule: Q01DX005 (ip), vehicle: saline with Tween-80) 108 % of control; under setting [11], 107 % of control.

In the case of `CC(C)CC(N)C(=O)NC(Cc1cnc[nH]1)C(=O)O` (stereo not drawn) (H-Leu-His-OH; configuration not given here), the T/C by setting is: (dose: 60.0 mg/kg/injection, schedule: Q01DX005 (ip), vehicle: saline) 97 % of control; (dose: 120.0 mg/kg/injection, schedule: Q01DX005 (ip), vehicle: saline) 106 % of control; (dose: 240.0 mg/kg/injection, schedule: Q01DX005 (ip), vehicle: saline) 104 % of control.

For the compound `CC1(C)S/C(=C\c2ccccc2)c2nc3ccccc3c(=O)n21`, the T/C runs as follows: under setting [11], 97 % of control; (dose: 120.0 mg/kg/injection, schedule: Q01DX005 (ip), vehicle: saline with Tween-80) 91 % of control; (dose: 240.0 mg/kg/injection, schedule: Q01DX005 (ip), vehicle: saline with Tween-80) 89 % of control.

These data come from PubChem BioAssay AID330 (DTP/NCI, 2004).
